Results as given in patent US20140171404A1, “Autotaxin inhibitors” (NOVARTIS AG, priority 2012, published 2014).

These compounds were tested against T1, Recombinant human ATX (Homo sapiens, UniProt Q13822) (assay: Assessing ATX inhibition: released choline, Amplex Red fluorescence). Settings: ATX 10 nM, LPC 18:1 10 μM, pre-incubated with ATX at 37° C. for 20 minutes; Table 1, exemplified compounds; read-out: IC50.
T1 construct: made in house; host or cells: human embryonic kidney (HEK) cells
Format: biochemical
Experimental: LPC (oleoyl (18:1)) was purchased from Avanti Polar Lipids (Alabaster; AL) and solubilized in methanol to 20 mM. Amplex Red was obtained from Invitrogen Life Technologies (Paisley, UK) and dissolved in DMSO to 10 mM. Choline oxidase and horseradish peroxidase (HRP) were obtained from Sigma Aldrich (Dorset, UK) and dissolved in HBSS to 20 U/ml and 200 U/ml respectively. All reagents were stored at −20° C. in single use aliquots. All experimental measurements were performed in assay buffer made up immediately prior to use (HBSS, 0.01% BSA essentially fatty acid free).
Recombinant human ATX was prepared at Novartis (Basel, CH) in a human embryonic kidney (HEK) cell preparation, and stored in single use aliquots of […] (26 μM) stocks stored at −80° C.
All experimental measurements were performed in black 384 well polystyrene (low volume, round bottom, Corning (3676)) plates. PerkinElmer EnVision (Fluorescence Intensity/Absorbance Monochromator) or Tecan Infinite 200 PRO series plate reader was used to detect change in fluorescent intensity.
ATX activity was determined by measurement of released choline in reactions containing ATX (10 nM), choline oxidase (0.1 U/ml), HRP (100 U/ml), amplex red (50 μM) and LPC 18:1 (10 μM). Compounds of the invention were prepared as 10 point serial dilutions from 1 μM in duplicate and pre-incubated with ATX at 37° C. for 20 minutes prior to the addition of remaining reagents. The liberated choline was measured from changes in fluorescence intensity (λex 530 nm, λem 590 nm) of the product resurofin at 37° C. every 2 minutes over a 40-minute period. ATX activity was measured as a slope of the linear portion of the progress curve, typically between 14 to 24 minutes.
Slope data was exported to Graphpad prism (Graphpad software, San Diego, Calif.) where data was fitted to equation 1.
Y=Bottom+(Top−Bottom)/(1+10̂((Log IC50−X)*HillSlope)) Equation 1: […]

| IC50 [nM] | SMILES |
| --- | --- |
| 3 | O=C(CCCc1c[nH]nn1)NC1CCN(C(=O)OCc2cc(Br)cc(C(F)(F)F)c2)CC1 [Example 63, 3-Bromo-5-(trifluoromethyl)benzyl 4-(4-(1H-1,2,3-triazol-4-yl)butanamido)piperidine-1-carboxylate] |
| 8 | N#Cc1cc(Cl)cc(COC(=O)N2CCC(NC(=O)CCCCc3c[nH]nn3)CC2)c1 [Example 64, 3-Chloro-5-cyanobenzyl 4-(5-(1H-1,2,3-triazol-4-yl)pentanamido)piperidine-1-carboxylate] |
| 26 | N#Cc1cc(Cl)cc(COC(=O)N2CCC(NC(=O)CCc3c[nH]nn3)CC2)c1 [Example 65, 3-Chloro-5-cyanobenzyl 4-(3-(1H-1,2,3-triazol-4-yl)propanamido)piperidine-1-carboxylate] |
| 4 | N#Cc1cc(COC(=O)N2CCC(NC(=O)CCCc3c[nH]nn3)CC2)cc(C(F)(F)F)c1 [Example 66, 3-Cyano-5-(trifluoromethyl)benzyl 4-(4-(1H-1,2,3-triazol-4-yl)butanamido)piperidine-1-carboxylate] |
| 4 | O=C(CCCCCc1c[nH]nn1)NC1CCN(C(=O)OCc2cc(Cl)cc(Cl)c2)CC1 [Example 67, 3,5-Dichlorobenzyl 4-(6-(1H-1,2,3-triazol-4-yl)hexanamido)piperidine-1-carboxylate] |
| 318 | O=C(OCc1cc(Cl)cc(Cl)c1)N1CCC(CCCCCc2c[nH]nn2)CC1 [Example 68, 3,5-Dichlorobenzyl 4-(5-(1H-1,2,3-triazol-4-yl)pentyl)piperidine-1-carboxylate] |
| 69 | N#Cc1cc(Cl)cc(COC(=O)N2CCC(CCCCCc3c[nH]nn3)CC2)c1 [Example 69, 3-Chloro-5-cyanobenzyl 4-(5-(1H-1,2,3-triazol-4-yl)pentyl)piperidine-1-carboxylate] |
| 5 | N#Cc1cc(COC(=O)N2CCC(NC(=O)CCCc3c[nH]nn3)CC2)cc(OC(F)(F)F)c1 [Example 70, 3-Cyano-5-(trifluoromethoxy)benzyl 4-(4-(1H-1,2,3-triazol-4-yl)butanamido)piperidine-1-carboxylate] |
| 13 | Cc1cc(C#N)cc(COC(=O)N2CCC(NC(=O)CCCc3c[nH]nn3)CC2)c1 [Example 71, 3-Cyano-5-methylbenzyl 4-(4-(1H-1,2,3-triazol-4-yl)butanamido)piperidine-1-carboxylate] |
| 7 | N#Cc1cc(COC(=O)N2CCC(NC(=O)CCCc3c[nH]nn3)CC2)cc(Cl)c1Cl [Example 72, 3,4-Dichloro-5-cyanobenzyl 4-(4-(1H-1,2,3-triazol-4-yl)butanamido)piperidine-1-carboxylate] |
| 2 | O=C(CCCc1c[nH]c(=O)s1)NC1CCN(C(=O)OCc2cc(Cl)cc(Cl)c2)CC1 [Example 73, 3,5-Dichlorobenzyl 4-(4-(2-oxo-2,3-dihydrothiazol-5-yl)butanamido)piperidine-1-carboxylate] |
| 21 | O=C(CCCc1nnn[nH]1)NC1CCN(C(=O)OCc2cc(Cl)cc(Cl)c2)CC1 [Example 74, 3,5-Dichlorobenzyl 4-(4-(1H-tetrazol-5-yl)butanamido)piperidine-1-carboxylate] |
| 29 | N#Cc1cc(Cl)cc(COC(=O)N2CCC(NCCCCc3c[nH]nn3)CC2)c1 [Example 75] |

Same assay, conditions: same assay; compounds outside the scope of the invention; read-out: IC50

| IC50 [nM] | SMILES |
| --- | --- |
| > 1000 | O=C(NCC1CCN(C(=O)OCc2cc(Cl)cc(Cl)c2)CC1)c1cc(O)no1 [reference compound] |
| > 5500 | O=C(/C=C/c1c[nH]cn1)N1CCN(C2CCN(C(=O)CCc3ccc(C(F)(F)F)cc3)CC2)CC1 [reference compound] |
| 1390 | O=C(CCCc1c[nH]nn1)NC1CCN(C(=O)OCc2ccccc2)CC1 [reference compound] |
